Test results as given in PubChem BioAssay (NCI).
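Results reflect a 48-hour exposure of cells in 96-well plates to compound at five concentrations. TGI: total growth inhibition.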

Legend:
Assay in all cases: DTP human tumour cell line panel, 48 h
786-0 renal = test system: 786-0 renal
A498 renal = test system: A498 renal
A549 NSCLC = test system: A549 NSCLC
ACHN renal = test system: ACHN renal
CAKI-1 renal = test system: CAKI-1 renal
CCRF-CEM leukemia = test system: CCRF-CEM leukemia
COLO 205 colon = test system: COLO 205 colon
DLD-1 colon = test system: DLD-1 colon
DMS 114 small cell lung = test system: DMS 114 small cell lung
DMS 273 small cell lung = test system: DMS 273 small cell lung
EKVX NSCLC = test system: EKVX NSCLC
HCC-2998 colon = test system: HCC-2998 colon
HCT-116 colon = test system: HCT-116 colon
HCT-15 colon = test system: HCT-15 colon
HL-60(TB) leukemia = test system: HL-60(TB) leukemia
HOP-62 NSCLC = test system: HOP-62 NSCLC
HOP-92 NSCLC = test system: HOP-92 NSCLC
HT29 colon = test system: HT29 colon
IGROV1 ovarian = test system: IGROV1 ovarian
K-562 leukemia = test system: K-562 leukemia
KM12 colon = test system: KM12 colon
KM20L2 colon = test system: KM20L2 colon
LOX IMVI melanoma = test system: LOX IMVI melanoma
LXFL 529 NSCLC = test system: LXFL 529 NSCLC
M14 melanoma = test system: M14 melanoma
M19-MEL melanoma = test system: M19-MEL melanoma
MALME-3M melanoma = test system: MALME-3M melanoma
MOLT-4 leukemia = test system: MOLT-4 leukemia
NCI-H226 lung = test system: NCI-H226 lung
NCI-H23 lung = test system: NCI-H23 lung
NCI-H460 lung = test system: NCI-H460 lung
NCI-H522 lung = test system: NCI-H522 lung
OVCAR-3 ovarian = test system: OVCAR-3 ovarian
OVCAR-5 ovarian = test system: OVCAR-5 ovarian
OVCAR-8 ovarian = test system: OVCAR-8 ovarian
RPMI-8226 leukemia = test system: RPMI-8226 leukemia
RXF 393 renal = test system: RXF 393 renal
SF-268 CNS = test system: SF-268 CNS
SF-295 CNS = test system: SF-295 CNS
SF-539 CNS = test system: SF-539 CNS
SK-MEL-2 melanoma = test system: SK-MEL-2 melanoma
SK-MEL-28 melanoma = test system: SK-MEL-28 melanoma
SK-MEL-5 melanoma = test system: SK-MEL-5 melanoma
SK-OV-3 ovarian = test system: SK-OV-3 ovarian
SN12C renal = test system: SN12C renal
SNB-19 CNS = test system: SNB-19 CNS
SNB-78 CNS = test system: SNB-78 CNS
SR leukemia = test system: SR leukemia
SW-620 colon = test system: SW-620 colon
TK-10 renal = test system: TK-10 renal
U251 CNS = test system: U251 CNS
UACC-62 melanoma = test system: UACC-62 melanoma
XF 498 CNS = test system: XF 498 CNS
HOP-18 NSCLC = test system: HOP-18 NSCLC
OVCAR-4 ovarian = test system: OVCAR-4 ovarian
SNB-75 CNS = test system: SNB-75 CNS
UACC-257 melanoma = test system: UACC-257 melanoma
UO-31 renal = test system: UO-31 renal

COC(=O)n1c(C[P+](c2ccccc2)(c2ccccc2)c2ccccc2)cc2ccccc21
TGI (786-0 renal): 12.8 µM
TGI (A498 renal): 22.7 µM
TGI (A549 NSCLC): 12.4 µM
TGI (ACHN renal): 14.9 µM
TGI (CAKI-1 renal): 7.15 µM
TGI (CCRF-CEM leukemia): 21.1 µM
TGI (COLO 205 colon): 2.92 µM
TGI (DLD-1 colon): 11.4 µM
TGI (DMS 114 small cell lung): 9.29 µM
TGI (DMS 273 small cell lung): 6.25 µM
TGI (EKVX NSCLC): 11.1 µM
TGI (HCC-2998 colon): 10.3 µM
TGI (HCT-116 colon): 11 µM
TGI (HCT-15 colon): 34.2 µM
TGI (HL-60(TB) leukemia): 6.12 µM
TGI (HOP-62 NSCLC): 4.57 µM
TGI (HOP-92 NSCLC): 3.34 µM
TGI (HT29 colon): 11.8 µM
TGI (IGROV1 ovarian): 12 µM
TGI (K-562 leukemia): 16.2 µM
TGI (KM12 colon): 3.94 µM
TGI (KM20L2 colon): 10.7 µM
TGI (LOX IMVI melanoma): 11.5 µM
TGI (LXFL 529 NSCLC): 3.73 µM
TGI (M14 melanoma): 7.37 µM
TGI (M19-MEL melanoma): 13.1 µM
TGI (MALME-3M melanoma): 17.1 µM
TGI (MOLT-4 leukemia): 17.8 µM
TGI (NCI-H226 lung): 5.95 µM
TGI (NCI-H23 lung): 7.77 µM
TGI (NCI-H460 lung): 12.2 µM
TGI (NCI-H522 lung): 6.34 µM
TGI (OVCAR-3 ovarian): 11.2 µM
TGI (OVCAR-5 ovarian): 8.66 µM
TGI (OVCAR-8 ovarian): 10.4 µM
TGI (RPMI-8226 leukemia): 14.7 µM
TGI (RXF 393 renal): 14.4 µM
TGI (SF-268 CNS): 16.1 µM
TGI (SF-295 CNS): 5.9 µM
TGI (SF-539 CNS): 14.7 µM
TGI (SK-MEL-2 melanoma): 4.97 µM
TGI (SK-MEL-28 melanoma): 15.7 µM
TGI (SK-MEL-5 melanoma): 3.93 µM
TGI (SK-OV-3 ovarian): 3.59 µM
TGI (SN12C renal): 11.7 µM
TGI (SNB-19 CNS): 10.8 µM
TGI (SNB-78 CNS): 17.9 µM
TGI (SR leukemia): 25 µM
TGI (SW-620 colon): 13.1 µM
TGI (TK-10 renal): 9.12 µM
TGI (U251 CNS): 17.5 µM
TGI (UACC-62 melanoma): 16.3 µM
TGI (XF 498 CNS): 6.09 µM

CC1(C)COC(c2c(-c3ccccc3)noc2CS(=O)c2ccccc2)=N1 (centres undefined)
TGI (786-0 renal): > 100 µM
TGI (A498 renal): > 100 µM
TGI (A549 NSCLC): > 100 µM
TGI (ACHN renal): > 100 µM
TGI (CAKI-1 renal): > 100 µM
TGI (CCRF-CEM leukemia): > 100 µM
TGI (COLO 205 colon): > 100 µM
TGI (DLD-1 colon): > 100 µM
TGI (DMS 114 small cell lung): 99.1 µM
TGI (DMS 273 small cell lung): > 100 µM
TGI (EKVX NSCLC): > 100 µM
TGI (HCC-2998 colon): > 100 µM
TGI (HCT-116 colon): > 100 µM
TGI (HCT-15 colon): > 100 µM
TGI (HL-60(TB) leukemia): 84.6 µM
TGI (HOP-18 NSCLC): 86.4 µM
TGI (HOP-62 NSCLC): > 100 µM
TGI (HT29 colon): > 100 µM
TGI (IGROV1 ovarian): > 100 µM
TGI (K-562 leukemia): > 100 µM
TGI (KM12 colon): > 100 µM
TGI (KM20L2 colon): > 100 µM
TGI (LOX IMVI melanoma): > 100 µM
TGI (LXFL 529 NSCLC): > 100 µM
TGI (M14 melanoma): > 100 µM
TGI (M19-MEL melanoma): > 100 µM
TGI (MALME-3M melanoma): > 100 µM
TGI (MOLT-4 leukemia): > 100 µM
TGI (NCI-H226 lung): > 100 µM
TGI (NCI-H23 lung): > 100 µM
TGI (NCI-H460 lung): > 100 µM
TGI (NCI-H522 lung): > 100 µM
TGI (OVCAR-3 ovarian): > 100 µM
TGI (OVCAR-4 ovarian): > 100 µM
TGI (OVCAR-5 ovarian): > 100 µM
TGI (OVCAR-8 ovarian): > 100 µM
TGI (RPMI-8226 leukemia): > 100 µM
TGI (RXF 393 renal): > 100 µM
TGI (SF-268 CNS): > 100 µM
TGI (SF-295 CNS): > 100 µM
TGI (SF-539 CNS): > 100 µM
TGI (SK-MEL-2 melanoma): 70.2 µM
TGI (SK-MEL-28 melanoma): > 100 µM
TGI (SK-MEL-5 melanoma): > 100 µM
TGI (SK-OV-3 ovarian): > 100 µM
TGI (SN12C renal): > 100 µM
TGI (SNB-19 CNS): > 100 µM
TGI (SNB-75 CNS): > 100 µM
TGI (SNB-78 CNS): > 100 µM
TGI (SR leukemia): > 100 µM
TGI (SW-620 colon): > 100 µM
TGI (TK-10 renal): > 100 µM
TGI (U251 CNS): > 100 µM
TGI (UACC-257 melanoma): > 100 µM
TGI (UACC-62 melanoma): 76.9 µM
TGI (UO-31 renal): > 100 µM
